In patent publication US11220492B2, “Quinazoline-pyrazole derivatives for the treatment of cancer-related disorders” (ARCUS BIOSCIENCES, INC., priority 2017, dated 2022) one finds Kb data, which are given here for 42 molecules.

One experiment addresses A2AR (Homo sapiens, UniProt P29274). The experiment is described as follows: A2AR potency (KB), Table 1. Type of experiment: biochemical. The following applies: read-out: Potency: A2AR KB (A2A).
The next experiment deals with T1, A2BR (Homo sapiens, UniProt P29275).
T1 sequence (P29275 1-332): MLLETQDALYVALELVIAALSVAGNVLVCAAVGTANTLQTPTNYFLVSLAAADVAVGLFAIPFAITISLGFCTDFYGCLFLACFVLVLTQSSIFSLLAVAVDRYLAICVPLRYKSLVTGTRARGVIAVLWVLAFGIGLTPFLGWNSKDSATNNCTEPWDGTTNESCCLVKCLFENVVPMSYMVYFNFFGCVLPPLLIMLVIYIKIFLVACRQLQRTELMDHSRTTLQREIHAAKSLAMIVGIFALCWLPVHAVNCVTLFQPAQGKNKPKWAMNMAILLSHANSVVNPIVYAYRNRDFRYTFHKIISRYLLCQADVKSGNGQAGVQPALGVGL
Kind of experiment: A2BR potency (KB), Table 1. Type of experiment: biochemical.

SMILES strings stand for the structures.

Sequence of A2AR (P29274 whole entry): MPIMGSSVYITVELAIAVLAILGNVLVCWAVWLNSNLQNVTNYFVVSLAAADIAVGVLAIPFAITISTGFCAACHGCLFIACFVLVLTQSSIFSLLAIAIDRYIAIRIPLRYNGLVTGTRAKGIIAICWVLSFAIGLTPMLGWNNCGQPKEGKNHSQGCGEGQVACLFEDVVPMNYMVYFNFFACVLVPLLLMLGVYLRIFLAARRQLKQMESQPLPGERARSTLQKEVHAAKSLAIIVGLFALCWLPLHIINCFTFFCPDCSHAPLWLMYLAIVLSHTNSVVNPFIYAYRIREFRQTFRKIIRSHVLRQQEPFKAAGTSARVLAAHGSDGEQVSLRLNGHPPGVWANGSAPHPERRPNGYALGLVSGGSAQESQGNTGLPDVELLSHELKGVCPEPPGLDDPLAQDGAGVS

`Nc1nc(-c2cn(Cc3ccn[nH]3)nn2)c2cccc(F)c2n1`: the Kb at A2AR and at A2BR was less than 100 nM in each case. Regarding `COc1cccc2c(-c3cn(Cc4cc[nH]n4)nn3)nc(N)nc12`, the Kb on A2AR and on A2BR was less than 100 nM throughout. On to `COc1cccc2c(-c3cn(Cc4ccn(C5CC5)n4)nn3)nc(N)nc12`, for which the Kb on A2AR and on A2BR was less than 100 nM each time. In the case of `COc1cccc2c(-c3cn(Cc4ccnn4C(C)C)nn3)nc(N)nc12`, the Kb on A2AR and on A2BR was less than 100 nM each time. As for `COc1cccc2c(-c3cn(Cc4ccn(C(C)C)n4)nn3)nc(N)nc12`, the Kb on A2AR and on A2BR was less than 100 nM in each case. As for `COc1cccc2c(-c3cn(Cc4ccn(C5CC5)n4)nn3)cc(N)nc12`, the Kb at A2AR and on A2BR was less than 100 nM in each case. Regarding `COc1cccc2c(-c3cn(Cc4ccnn4C)nn3)nc(N)nc12`, the Kb on A2AR and on A2BR was less than 100 nM in each case.

Take `COc1cccc2c(-c3cn(Cc4ccn(C)n4)nn3)nc(N)nc12`: the Kb at A2AR and on A2BR was less than 100 nM in each case. In the case of `CC(C)n1ccc(Cn2cc(-c3nc(N)nc4c(Cl)cccc34)nn2)n1`, the Kb at A2AR and on A2BR was less than 100 nM each time. Consider `CC(C)n1nccc1Cn1cc(-c2nc(N)nc3c(Cl)cccc23)nn1`, for which the Kb at A2AR and on A2BR was less than 100 nM in each case. Regarding `COc1c(F)ccc2c(-c3cn(Cc4ccnn4C(C)C)nn3)nc(N)nc12`, the Kb on A2AR and on A2BR was less than 100 nM throughout. On to `COc1c(F)ccc2c(-c3cn(Cc4ccn(C(C)C)n4)nn3)nc(N)nc12`, for which the Kb on A2AR and on A2BR was less than 100 nM throughout. `COc1cccc2c(-c3cn(Cc4ccn([C@@H]5CCOC5)n4)nn3)nc(N)nc12`: the Kb on A2AR and at A2BR was less than 100 nM in each case. As for `COc1cccc2c(-c3cn(Cc4ccn([C@H]5CCOC5)n4)nn3)nc(N)nc12`, the Kb on A2AR and on A2BR was less than 100 nM each time. `COc1cccc2c(-c3cn(Cc4ccn(CC(C)(C)O)n4)nn3)nc(N)nc12`: the Kb on A2AR and at A2BR was less than 100 nM throughout. Regarding `CC(C)n1ccc(Cn2cc(-c3cc(N)nc4c(F)cccc34)nn2)n1`, the Kb on A2AR and on A2BR was less than 100 nM in each case.

As to `COc1cccc2c(-c3cn(Cc4ccnn4CCO)nn3)nc(N)nc12`, on A2AR, the Kb was less than 100 nM. The same measure, in the same setting: the value for `COc1cccc2c(-c3cn(Cc4ccn(CCO)n4)nn3)nc(N)nc12` was less than 100 nM. In the case of `CCn1ccc(Cn2cc(-c3nc(N)nc4c(OC)cccc34)nn2)n1`, the Kb on A2AR and on A2BR was less than 100 nM in each case. As to `COc1cccc2c(-c3cn(Cc4ccnn4CC4CCCO4)nn3)nc(N)nc12` (stereo not shown), the Kb was less than 100 nM at A2AR and 100 to 1000 nM on A2BR. The like results for `CCOc1cccc2c(-c3cn(Cc4ccn(C5CC5)n4)nn3)nc(N)nc12` were, in that order, less than 100 nM and 100 to 1000 nM. The like results for `CCOc1cccc2c(-c3cn(Cc4ccn(C(C)C)n4)nn3)nc(N)nc12` were, in that order, less than 100 nM and 100 to 1000 nM. For `Nc1nc(-c2cn(Cc3ccn(C4CC4)n3)nn2)c2ccc(F)c(F)c2n1`, in that order: less than 100 nM and less than 100 nM. `COc1cccc2c(-c3cn(Cc4ccn(CC(=O)O)n4)nn3)nc(N)nc12`: the Kb at A2AR and at A2BR was 100 to 1000 nM each time. Take `CC(C)(O)Cn1ccc(Cn2cc(-c3cc(N)nc4c(F)cccc34)nn2)n1`: the Kb on A2AR and on A2BR was less than 100 nM throughout. Consider `COc1cccc2c(-c3cn(Cc4ccn(CC(N)=O)n4)nn3)nc(N)nc12`, for which the Kb on A2AR and on A2BR was less than 100 nM throughout.

As for `COc1cccc2c(-c3cn(Cc4ccn(CC(=O)N5CC(O)C5)n4)nn3)nc(N)nc12`, the Kb on A2AR and on A2BR was less than 100 nM each time. On to `N#Cc1ccc2c(-c3cn(Cc4ccn(C5CC5)n4)nn3)nc(N)nc2c1`, for which the Kb on A2AR and on A2BR was less than 100 nM throughout. For `COc1cccc2c(-c3cn(Cc4ccn(CC(=O)N[C@H]5CCOC5)n4)nn3)nc(N)nc12`, the Kb at A2AR is less than 100 nM; at A2BR it was 100 to 1000 nM. For `COc1cccc2c(-c3cn(Cc4ccn(CC(=O)NCC5(O)CC5)n4)nn3)nc(N)nc12`, in that order: less than 100 nM and less than 100 nM.

In the case of `COc1cccc2c(-c3cn(Cc4ccn(CCN5CCCC5=O)n4)nn3)nc(N)nc12`, the Kb at A2AR was less than 100 nM; at A2BR, 100 to 1000 nM. The like results for `COc1cccc2c(-c3cn(Cc4ccn(CCN5CCOCC5=O)n4)nn3)nc(N)nc12` were, in that order, less than 100 nM and less than 100 nM. The like results for `COc1cccc2c(-c3cn(Cc4cc(C(C)(C)O)[nH]n4)nn3)nc(N)nc12` were, in that order, less than 100 nM and less than 100 nM. For `COc1cccc2c(-c3cn(Cc4ccn(C(C)C(=O)O)n4)nn3)nc(N)nc12` (stereo not shown), in that order: less than 100 nM and 100 to 1000 nM. For the molecule `COc1cccc2c(-c3cn(Cc4ccn(C(C)C(N)=O)n4)nn3)nc(N)nc12` (stereo not shown), the Kb at A2AR and on A2BR was less than 100 nM throughout. For `COc1cccc2c(-c3cn(Cc4ccn(CC(=O)N[C@@H]5CCOC5)n4)nn3)nc(N)nc12`, the Kb was less than 100 nM on A2AR and 100 to 1000 nM at A2BR. With `COc1cccc2c(-c3cn(Cc4ccn(C(C)(C)CO)n4)nn3)nc(N)nc12`, the Kb at A2AR and at A2BR was less than 100 nM throughout.

On to `CC(C)(CO)n1ccc(Cn2cc(-c3nc(N)nc4c(F)cccc34)nn2)n1`, for which the Kb on A2AR and at A2BR was less than 100 nM each time. For the molecule `COc1c(F)ccc2c(-c3cn(Cc4ccn(C(C)(C)CO)n4)nn3)nc(N)nc12`, the Kb on A2AR is less than 100 nM; on A2BR, 100 to 1000 nM. In the case of `COc1ccc2c(-c3cn(Cc4ccn(C(C)(C)CO)n4)nn3)nc(N)nc2c1`, the Kb on A2AR and at A2BR was less than 100 nM in each case.

`COCC(C)(C)n1ccc(Cn2cc(-c3nc(N)nc4c(OC)cccc34)nn2)n1`: the Kb on A2AR and on A2BR was less than 100 nM throughout. For the molecule `COc1cccc2c(-c3cn(Cc4ccn(CC5CCOCC5)n4)nn3)nc(N)nc12`, the Kb at A2AR and at A2BR was less than 100 nM throughout.
